Experimental data as given in patent US20240270762A1, “PENICILLIN-BINDING PROTEIN INHIBITORS” (priority 2021, published 2024).
Values after ≈ are worked out from the molar mass of the structure shown.

Key:
[1] = target: T1, PBP3 from Escherichia coli (K-12) (Escherichia coli, UniProt P0AD68); assay: Bocillin-FL fluorescence polarization competition binding, E. coli PBP3
T1 construct: made in house
Outline: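 Purified PBP was preincubated with inhibitor (E. coli PBP3 1.5 μM, 30 min; P. aeruginosa PBP3 0.75 μM, A. baumannii PBP3 0.2 μM and PBP1a 1 μM, 15 min), then Bocillin-FL (0.1 μM; 0.05 μM for PBP1a) added and FP read up to 60 min. EC50 = 50% loss of bound probe.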

[2] = tested on: P. aeruginosa (ΔmexAB-oprM); assay: Broth microdilution MIC in iron-depleted CAMHB (IDM); type: cell-based; settings: Pseudomonas aeruginosa; iron-depleted CAMHB (IDM); […]; read-out: Minimum inhibitory concentration, P. aeruginosa ΔmexAB-oprM
P. aeruginosa CDC-0054 = assay: microbe, parasite or virus in culture; type: cell-based; settings: Pseudomonas aeruginosa, CDC0054, read-out: Minimum inhibitory concentration, P. aeruginosa CDC-0054
P. aeruginosa CDC-0090 = assay: microbe, parasite or virus in culture; type: cell-based; settings: Pseudomonas aeruginosa, CDC0090, read-out: Minimum inhibitory concentration, P. aeruginosa CDC-0090
A. baumannii CDC-0045 = assay: microbe, parasite or virus in culture; type: cell-based; settings: Acinetobacter baumannii, CDC0045, read-out: MIC, A. baumannii CDC-0045
[3] = tested on: B. thailandensis ATCC 700388; assay: microbe, parasite or virus in culture; type: cell-based; settings: Burkholderia thailandensis, ATCC700388, read-out: Minimum inhibitory concentration (MIC), B. thailandensis ATCC 700388
[4] = tested on: B. humptydooensis ATCC BAA-2767; assay: microbe, parasite or virus in culture; type: cell-based; settings: Burkholderia humptydooensis, ATCCBAA2767, read-out: Minimum inhibitory concentration (MIC), B. humptydooensis ATCC BAA-2767
N. gonorrhoeae WHO L = assay: Liquid broth MIC in Fastidious broth; settings: Neisseria gonorrhoeae, read-out: Minimum Inhibitory Concentration (MIC), N. gonorrhoeae WHO L
N. gonorrhoeae WHO K = assay: Liquid broth MIC in Fastidious broth; settings: Neisseria gonorrhoeae, read-out: Minimum Inhibitory Concentration (MIC), N. gonorrhoeae WHO K
N. gonorrhoeae WHO Q = assay: Liquid broth MIC in Fastidious broth; settings: Neisseria gonorrhoeae, read-out: Minimum Inhibitory Concentration (MIC), N. gonorrhoeae WHO Q

T1 sequence (P0AD68 1-577): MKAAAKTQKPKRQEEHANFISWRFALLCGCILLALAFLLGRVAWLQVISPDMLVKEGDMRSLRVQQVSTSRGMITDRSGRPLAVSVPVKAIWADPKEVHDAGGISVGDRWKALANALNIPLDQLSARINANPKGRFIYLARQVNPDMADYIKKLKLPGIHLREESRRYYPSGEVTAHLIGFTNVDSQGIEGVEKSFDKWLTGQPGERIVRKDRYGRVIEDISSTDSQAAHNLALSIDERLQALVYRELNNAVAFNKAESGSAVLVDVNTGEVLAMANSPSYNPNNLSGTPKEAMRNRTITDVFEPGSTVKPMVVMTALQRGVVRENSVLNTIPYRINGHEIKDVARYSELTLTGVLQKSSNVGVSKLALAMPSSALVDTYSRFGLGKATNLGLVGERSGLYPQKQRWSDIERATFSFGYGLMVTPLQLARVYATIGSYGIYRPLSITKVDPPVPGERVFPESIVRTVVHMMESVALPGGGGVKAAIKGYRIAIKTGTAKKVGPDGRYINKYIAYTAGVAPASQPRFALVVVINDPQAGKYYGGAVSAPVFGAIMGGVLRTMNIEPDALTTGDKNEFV

Structure (SMILES)	EC50 [1]	MIC [2]	MIC (P. aeruginosa CDC-0054)	MIC (P. aeruginosa CDC-0090)	MIC (A. baumannii CDC-0045)	MIC [3]	MIC [4]	MIC (N. gonorrhoeae WHO L)	MIC (N. gonorrhoeae WHO K)	MIC (N. gonorrhoeae WHO Q)
CN(CCN1CCN(C(=O)N[C@@H](C(=O)N[C@H]2Cc3ccc(F)c(C(=O)O)c3OB2O)c2cc(F)c(O)c(O)c2Cl)C(=O)C1=O)Cc1cccc(C(N)=O)c1 [Example 225, (R)-3-((R)-2-(4-(2-((3-carbamoylbenzyl)(methyl)amino)ethyl)-2,3-dioxopiperazine-1-carboxamido)-2-(2-chloro-5-fluoro-3,4-dihydroxyphenyl)acetamido)-7-fluoro-2-hydroxy-3,4-dihydro-2H-benzo[e][1,2]oxaborinine-8-carboxylic acid]	10 to 50 µM	< 1 µg/mL	2 to 4 µg/mL (≈ 2.59 to 5.18 µM)	< 1 µg/mL	< 1 µg/mL	< 1 µg/mL	< 1 µg/mL	> 64 µg/mL	> 64 µg/mL	> 64 µg/mL
CN(CCN1CCN(C(=O)N[C@@H](C(=O)N[C@H]2Cc3ccc(F)c(C(=O)O)c3OB2O)c2cc(F)c(O)c(O)c2Cl)C(=O)C1=O)Cc1ccc(C(N)=O)cc1 [Example 226, (R)-3-((R)-2-(4-(2-((4-carbamoylbenzyl)(methyl)amino)ethyl)-2,3-dioxopiperazine-1-carboxamido)-2-(2-chloro-5-fluoro-3,4-dihydroxyphenyl)acetamido)-7-fluoro-2-hydroxy-3,4-dihydro-2H-benzo[e][1,2]oxaborinine-8-carboxylic acid]	< 10 µM	< 1 µg/mL	8 to 16 µg/mL (≈ 10.4 to 20.7 µM)	< 1 µg/mL	< 1 µg/mL	< 1 µg/mL	< 1 µg/mL	> 64 µg/mL	> 64 µg/mL	> 64 µg/mL
O=C(NCCCN1CCN(C(=O)NC(C(=O)N[C@H]2Cc3ccc(F)c(C(=O)O)c3OB2O)c2cc(F)c(O)c(O)c2Cl)C(=O)C1=O)Nc1ccc(O)cc1 (stereo partly drawn) [Example 227, (3R)-3-(2-(2-chloro-5-fluoro-3,4-dihydroxyphenyl)-2-(4-(3-(3-(4-hydroxyphenyl)ureido)propyl)-2,3-dioxopiperazine-1-carboxamido)acetamido)-7-fluoro-2-hydroxy-3,4-dihydro-2H-benzo[e][1,2]oxaborinine-8-carboxylic acid]	10 to 50 µM	< 1 µg/mL	< 1 µg/mL	2 to 4 µg/mL (≈ 2.58 to 5.16 µM)	< 1 µg/mL	< 1 µg/mL	< 1 µg/mL	> 64 µg/mL	> 64 µg/mL	> 64 µg/mL
O=C(NCCCN1CCN(C(=O)NC(C(=O)N[C@H]2Cc3ccc(F)c(C(=O)O)c3OB2O)c2cc(F)c(O)c(O)c2Cl)C(=O)C1=O)Nc1ccncc1 (stereo partly drawn) [Example 228, (3R)-3-(2-(2-chloro-5-fluoro-3,4-dihydroxyphenyl)-2-(2,3-dioxo-4-(3-(3-(pyridin-4-yl)ureido)propyl)piperazine-1-carboxamido)acetamido)-7-fluoro-2-hydroxy-3,4-dihydro-2H-benzo[e][1,2]oxaborinine-8-carboxylic acid]	< 10 µM	< 1 µg/mL	< 1 µg/mL	2 to 4 µg/mL (≈ 2.63 to 5.26 µM)	< 1 µg/mL	< 1 µg/mL	< 1 µg/mL	> 64 µg/mL	> 64 µg/mL	> 64 µg/mL
O=C(CN1CCN(C(=O)NC(C(=O)N[C@H]2Cc3ccc(F)c(C(=O)O)c3OB2O)c2cc(F)c(O)c(O)c2Cl)C(=O)C1=O)Nc1ccc(O)cc1 (stereo partly drawn) [Example 230, (3R)-3-(2-(2-chloro-5-fluoro-3,4-dihydroxyphenyl)-2-(4-(2-((4-hydroxyphenyl)amino)-2-oxoethyl)-2,3-dioxopiperazine-1-carboxamido)acetamido)-7-fluoro-2-hydroxy-3,4-dihydro-2H-benzo[e][1,2]oxaborinine-8-carboxylic acid]	< 10 µM	< 1 µg/mL	< 1 µg/mL	2 to 4 µg/mL (≈ 2.73 to 5.47 µM)	< 1 µg/mL	2 to 4 µg/mL (≈ 2.73 to 5.47 µM)	2 to 4 µg/mL (≈ 2.73 to 5.47 µM)	16 to 32 µg/mL (≈ 21.9 to 43.7 µM)	16 to 32 µg/mL (≈ 21.9 to 43.7 µM)	16 to 32 µg/mL (≈ 21.9 to 43.7 µM)
O=C(CN1CCN(C(=O)NC(C(=O)N[C@H]2Cc3ccc(F)c(C(=O)O)c3OB2O)c2cc(F)c(O)c(O)c2Cl)C(=O)C1=O)Nc1cccc(O)c1 (stereo partly drawn) [Example 231, (3R)-3-(2-(2-chloro-5-fluoro-3,4-dihydroxyphenyl)-2-(4-(2-((3-hydroxyphenyl)amino)-2-oxoethyl)-2,3-dioxopiperazine-1-carboxamido)acetamido)-7-fluoro-2-hydroxy-3,4-dihydro-2H-benzo[e][1,2]oxaborinine-8-carboxylic acid]	< 10 µM	< 1 µg/mL	2 to 4 µg/mL (≈ 2.73 to 5.47 µM)	2 to 4 µg/mL (≈ 2.73 to 5.47 µM)	2 to 4 µg/mL (≈ 2.73 to 5.47 µM)	2 to 4 µg/mL (≈ 2.73 to 5.47 µM)	8 to 16 µg/mL (≈ 10.9 to 21.9 µM)	> 64 µg/mL	16 to 32 µg/mL (≈ 21.9 to 43.7 µM)	16 to 32 µg/mL (≈ 21.9 to 43.7 µM)
O=C(CN1CCN(C(=O)NC(C(=O)N[C@H]2Cc3ccc(F)c(C(=O)O)c3OB2O)c2cc(F)c(O)c(O)c2Cl)C(=O)C1=O)Nc1ccccc1 (stereo partly drawn) [Example 232, (3R)-3-(2-(2-chloro-5-fluoro-3,4-dihydroxyphenyl)-2-(2,3-dioxo-4-(2-oxo-2-(phenylamino)ethyl)piperazine-1-carboxamido)acetamido)-7-fluoro-2-hydroxy-3,4-dihydro-2H-benzo[e][1,2]oxaborinine-8-carboxylic acid]	< 10 µM	< 1 µg/mL	2 to 4 µg/mL (≈ 2.79 to 5.59 µM)	2 to 4 µg/mL (≈ 2.79 to 5.59 µM)	8 to 16 µg/mL (≈ 11.2 to 22.4 µM)	< 1 µg/mL	> 128 µg/mL	> 64 µg/mL	> 64 µg/mL	> 64 µg/mL
O=C(CN1CCN(C(=O)NC(C(=O)N[C@H]2Cc3ccc(F)c(C(=O)O)c3OB2O)c2cc(F)c(O)c(O)c2Cl)C(=O)C1=O)Nc1ccncc1 (stereo partly drawn) [Example 233, (3R)-3-(2-(2-chloro-5-fluoro-3,4-dihydroxyphenyl)-2-(2,3-dioxo-4-(2-oxo-2-(pyridin-4-ylamino)ethyl)piperazine-1-carboxamido)acetamido)-7-fluoro-2-hydroxy-3,4-dihydro-2H-benzo[e][1,2]oxaborinine-8-carboxylic acid]	< 10 µM	< 1 µg/mL	< 1 µg/mL	< 1 µg/mL	2 to 4 µg/mL (≈ 2.79 to 5.58 µM)	2 to 4 µg/mL (≈ 2.79 to 5.58 µM)	< 1 µg/mL	> 64 µg/mL	16 to 32 µg/mL (≈ 22.3 to 44.6 µM)	16 to 32 µg/mL (≈ 22.3 to 44.6 µM)
O=C(CN1CCN(C(=O)NC(C(=O)N[C@H]2Cc3ccc(F)c(C(=O)O)c3OB2O)c2cc(F)c(O)c(O)c2Cl)C(=O)C1=O)Nc1cccnc1 (stereo partly drawn) [Example 234, (3R)-3-(2-(2-chloro-5-fluoro-3,4-dihydroxyphenyl)-2-(2,3-dioxo-4-(2-oxo-2-(pyridin-3-ylamino)ethyl)piperazine-1-carboxamido)acetamido)-7-fluoro-2-hydroxy-3,4-dihydro-2H-benzo[e][1,2]oxaborinine-8-carboxylic acid]	< 10 µM	< 1 µg/mL	2 to 4 µg/mL (≈ 2.79 to 5.58 µM)	2 to 4 µg/mL (≈ 2.79 to 5.58 µM)	< 1 µg/mL	8 to 16 µg/mL (≈ 11.2 to 22.3 µM)	< 1 µg/mL	> 64 µg/mL	16 to 32 µg/mL (≈ 22.3 to 44.6 µM)	16 to 32 µg/mL (≈ 22.3 to 44.6 µM)
O=C(CN1CCN(C(=O)NC(C(=O)N[C@H]2Cc3ccc(F)c(C(=O)O)c3OB2O)c2cc(F)c(O)c(O)c2Cl)C(=O)C1=O)Nc1nccs1 (stereo partly drawn) [Example 235, (3R)-3-(2-(2-chloro-5-fluoro-3,4-dihydroxyphenyl)-2-(2,3-dioxo-4-(2-oxo-2-(thiazol-2-ylamino)ethyl)piperazine-1-carboxamido)acetamido)-7-fluoro-2-hydroxy-3,4-dihydro-2H-benzo[e][1,2]oxaborinine-8-carboxylic acid]	< 10 µM	< 1 µg/mL	8 to 16 µg/mL (≈ 11.1 to 22.1 µM)	2 to 4 µg/mL (≈ 2.77 to 5.53 µM)	2 to 4 µg/mL (≈ 2.77 to 5.53 µM)	8 to 16 µg/mL (≈ 11.1 to 22.1 µM)	< 1 µg/mL	> 64 µg/mL	16 to 32 µg/mL (≈ 22.1 to 44.3 µM)	16 to 32 µg/mL (≈ 22.1 to 44.3 µM)
O=C(CN1CCN(C(=O)NC(C(=O)N[C@H]2Cc3ccc(F)c(C(=O)O)c3OB2O)c2cc(F)c(O)c(O)c2Cl)C(=O)C1=O)NCc1cccc(O)c1 (stereo partly drawn) [Example 237, (3R)-3-(2-(2-chloro-5-fluoro-3,4-dihydroxyphenyl)-2-(4-(2-((3-hydroxybenzyl)amino)-2-oxoethyl)-2,3-dioxopiperazine-1-carboxamido)acetamido)-7-fluoro-2-hydroxy-3,4-dihydro-2H-benzo[e][1,2]oxaborinine-8-carboxylic acid]	< 10 µM	< 1 µg/mL	8 to 16 µg/mL (≈ 10.7 to 21.5 µM)	2 to 4 µg/mL (≈ 2.68 to 5.36 µM)	8 to 16 µg/mL (≈ 10.7 to 21.5 µM)	8 to 16 µg/mL (≈ 10.7 to 21.5 µM)	2 to 4 µg/mL (≈ 2.68 to 5.36 µM)	> 64 µg/mL	> 64 µg/mL	> 64 µg/mL
